# Reference: paper PMC5632533, “Mechanisms of action and in vivo antibacterial efficacy assessment of five novel hybrid peptides derived from Indolicidin and Ranalexin against Streptococcus pneumoniae” (PeerJ, 2017)
# Legend:
# ICR (CD-1) mice = assay: In vivo toxicity in mice (SC, IN, IP routes); set-up: Aspartate aminotransferase, AST / Alanine transaminase, ALT / Alkaline phosphatase, ALP / Creatinine / Urea / Total bilirubin: unit not given here; conditions: for Eosinophil / Erythrocytes, RBC / Granulocytes / Hematocrit, HCT / Hemoglobin Hgb / Lymphocytes / Mean corpuscular haemoglobin concentration, MCHC / Mean corpuscular haemoglobin, MCH / Monocytes / White blood cells, WBC / platelet Counts, PLT / Mean corpuscular volume, MCV / Alanine transaminase, ALT / Alkaline phosphatase, ALP / Aspartate aminotransferase, AST / Creatinine / Total bilirubin / Urea: 3 doses (1hr, 12hr, 24hr), RN7-IN9, RN7-IN6 10 mg/kg, day 7, mean±SD, 4 mice; for Alanine transaminase, ALT / Alkaline phosphatase, ALP / Aspartate aminotransferase, AST / Creatinine / Total bilirubin / Urea: serum
# Procedure: In this study, 4-week old male, pathogen free ICR (CD-1) mice were purchased from InVivos (Lim Chu Kang, Singapore) and used to assess the in vivo toxicity and antibacterial efficacy of the novel peptides, as these animals are by far the most commonly used model for the study of pneumococcal disease ([Chiavolini, Pozzi & Ricci, 2008]). The mice were kept in ventilated polycarbonate cages (12 h light/dark cycle, 20 ± 2 °C and 55% relative humidity). All mice were familiarized for seven days before any experimental procedure and were given unlimited pellets and water ad libitum. All animal experimentations were conducted according to the guidelines approved by Faculty of Medicine Institutional Animal Care and Use Committee (FOM IACUC), University of Malaya (ethics Reference no. : 2013-07-15/MMBTR/SDS).
# In order to evaluate the possible toxic effects correlated to peptides administered in mice, four hybrid peptides RN7-IN10, RN7-IN9, RN7-IN8 and RN7-IN6 were chosen for in vivo toxicity assessment, due to their promising in vitro antibacterial activity ([Jindal et al., 2015]). Mice were separated into four groups (each with four mice) and were injected with respective peptides at 1 h, 12 h, and 24 h (three-dose regimen) via IP, SC, and IN administration routes. The hybrid peptides were first administered at high doses (100 mg/kg for IP route, 100 mg/kg for SC routes and 20 mg/kg for IN route). Any abnormal behavior was recorded and survival of mice was noted as well. In case adverse effects such as high physical stress, severe lethargy, physical inactiveness, and/or death were detected, lower graded doses were given. All the administered mice were monitored for seven days or until death occurred. At day seven post administration, all animals were sacrificed and blood and organs were collected. Untreated mice were used as a control group.
# Mice used to evaluate the in vivo toxicity and antibacterial activity of the hybrid peptides using the subcutaneous (SC) and intranasal (IN) administration routes, were anesthetized using a combination of a standard dose of xylazine (ilium xylazil-20, 10 mg/kg) and ketamine (Narketan®-10, 100 mg/kg) through intraperitoneal (IP) injection. After seven days of treatment, the in vivo toxicity and antibacterial efficacy experiments were ended and the surviving mice were anesthetized. Blood samples for Hematological and biochemical analysis were collected via cardiac puncture using a 25G syringe (BD bioscience, San Jose, CA, USA). Whole blood for heamatological analysis was collected in 500 µl dipotassium EDTA microtainer tubes (BD Bioscience, USA). About 500 µl of blood collected an eppedorff tube and centrifuged at 8000 rpm for 5 min and then the serum was transferred into a new 1.5 ml tube for biochemistry analysis. The mice were then euthanized by cervical dislocation, dissected and the following organs were collected for histopathology evaluation: lung, kidney, brain, liver and spleen.
# For whole blood analysis, the parameters were number of red cells (RBC), number of white cells (WBC), lymphocytes, monocytes, eosinophil, granulocytes, haemoglobin (Hgb), mean corpuscular volume (MCV), hematocrit (HCT), platelet Counts (PLT), Mean corpuscular haemoglobin (MCH) and corpuscular haemoglobin concentration (MCHC). For biochemistry analysis, the parameters were alanine transaminase (ALT), creatinine, alkaline phosphatase (ALP), aspartate aminotransferase (AST), total bilirubin and urea.
# The following organs were collected from all the dissected mice: lung, kidney, brain, spleen, and liver. All tissues were fixed in 10% (v/v) buffered formalin and processed for paraffin embedding. Hematoxylin–eosin (HE) was used to stain the histological sections at the histopathology laboratory, Veterinary Laboratory Service Unit, University Putra Malaysia (UPM).
# S. pneumoniae = assay: ATP efflux assay; assay type: cell-based, Streptococcus pneumoniae; conditions: 1 × 10^7 CFU/ml; peptides 125 µg/ml (RN7-IN7 500 µg/ml); luciferin/luciferase, ATP standard curve; mean ± SD, three independent experiments
# Procedure: The amount of ATP released from pneumococcal cells incubated with hybrid peptides was measured as described previously, with a slight modification ([Tanida et al., 2006]). The ATP determination kit (Molecular Probes, Eugene, OR, USA) was used to measure the amount of ATP released based on the luciferin/luciferase method according to the manufacturer’s instructions. Briefly, S. pneumoniae were grown overnight on Columbia agar with 5% sheep blood. Bacterial suspensions were spectrophotometrically adjusted to (1 × 10^7 CFU/ml) and incubated with hybrid peptides RN7-IN10, RN7-IN9, RN7-IN8 and RN7-IN6 at 125 µg/ml and with RN7-IN7 at 500 µg/ml. The amount of ATP released form the pneumococcal cells were measured at three time points 1, 2 and 3 h. The samples were then centrifuged at 5,000 rpm for 5 min, and ATP efflux was subsequently estimated using an ATP standard curve. Values were obtained from three independent experiments. Ceftriaxone and erythromycin were used as positive controls.
# [1] = IN, head doses: RN7-IN10, RN7-IN8 20 mg/kg
# [2] = SC, head doses: RN7-IN10, RN7-IN8 20 mg/kg
substance,measurement,setting,value
"FLGGLIKKWPWWPWRR-NH2 [RN7-IN9, hybrid peptide of ranalexin (residues 1-7) and indolicidin (residues 5-13)]",Eosinophil,ICR (CD-1) mice; [1],3.2±1.2%
same,"Erythrocytes, RBC",ICR (CD-1) mice; [1],9.36±0.9 10^6/mm^3
same,Granulocytes,ICR (CD-1) mice; [1],56.2±10.81%
same,"Hematocrit, HCT",ICR (CD-1) mice; [1],46.82±4.23%
same,Hemoglobin Hgb,ICR (CD-1) mice; [1],14.9 ± 1.32 g/dL
same,Lymphocytes,ICR (CD-1) mice; [1],41.27±10.56%
same,"Mean corpuscular haemoglobin concentration, MCHC",ICR (CD-1) mice; [1],31.85 ± 0.17 g/dL
same,"Mean corpuscular haemoglobin, MCH",ICR (CD-1) mice; [1],15.95 ± 0.33 pg
same,Monocytes,ICR (CD-1) mice; [1],2.52±0.27%
same,"White blood cells, WBC",ICR (CD-1) mice; [1],5.2±2.35 10^3/mm^3
same,"platelet Counts, PLT",ICR (CD-1) mice; [1],656.75±76.9 10^3/mm^3
same,Eosinophil,"ICR (CD-1) mice; IP, RN7-IN10, RN7-IN8 20 mg/kg",3.95±2.56%
same,"Erythrocytes, RBC","ICR (CD-1) mice; IP, RN7-IN10, RN7-IN8 20 mg/kg",8.06±1.04 10^6/mm^3
same,Granulocytes,"ICR (CD-1) mice; IP, RN7-IN10, RN7-IN8 20 mg/kg",53.02±4.07%
same,"Hematocrit, HCT","ICR (CD-1) mice; IP, RN7-IN10, RN7-IN8 20 mg/kg",41.42±5.25%
same,Hemoglobin Hgb,"ICR (CD-1) mice; IP, RN7-IN10, RN7-IN8 20 mg/kg",13.9 ± 1.67 g/dL
same,"Mean corpuscular haemoglobin concentration, MCHC","ICR (CD-1) mice; IP, RN7-IN10, RN7-IN8 20 mg/kg",33.63 ± 0.34 g/dL
same,"Mean corpuscular haemoglobin, MCH","ICR (CD-1) mice; IP, RN7-IN10, RN7-IN8 20 mg/kg",17.25 ± 0.78 pg
same,"Mean corpuscular volume, MCV","ICR (CD-1) mice; IP, RN7-IN10, RN7-IN8 20 mg/kg",51.5±2.64 µm^3
same,Monocytes,"ICR (CD-1) mice; IP, RN7-IN10, RN7-IN8 20 mg/kg",2.47±0.25%
same,"White blood cells, WBC","ICR (CD-1) mice; IP, RN7-IN10, RN7-IN8 20 mg/kg",3.7±1.54 10^3/mm^3
same,"platelet Counts, PLT","ICR (CD-1) mice; IP, RN7-IN10, RN7-IN8 20 mg/kg",674±118.72 10^3/mm^3
same,maximum IP dose at which no signs of stress or abnormal behavior were evident (non-toxic dose),"ICR (CD-1) mice; IP, doses at 1 h, 12 h, 24 h, no death up to seven days",10 mg/kg
same,Eosinophil,ICR (CD-1) mice; [2],2.77±0.54%
same,"Erythrocytes, RBC",ICR (CD-1) mice; [2],9.22±0.98 10^6/mm^3
same,Granulocytes,ICR (CD-1) mice; [2],55.55±4.52%
same,"Hematocrit, HCT",ICR (CD-1) mice; [2],46.15±5.19%
same,Hemoglobin Hgb,ICR (CD-1) mice; [2],15.75 ± 1.4 g/dL
same,Lymphocytes,ICR (CD-1) mice; [2],46.47±5.48%
same,"Mean corpuscular haemoglobin concentration, MCHC",ICR (CD-1) mice; [2],34.2 ± 1.37 g/dL
same,"Mean corpuscular haemoglobin, MCH",ICR (CD-1) mice; [2],17.1 ± 0.53 pg
same,"Mean corpuscular volume, MCV",ICR (CD-1) mice; [2],51±1.82 µm^3
same,Monocytes,ICR (CD-1) mice; [2],1.95±0.1%
same,"White blood cells, WBC",ICR (CD-1) mice; [2],4.32±0.55 10^3/mm^3
same,"platelet Counts, PLT",ICR (CD-1) mice; [2],449.75±100.23 10^3/mm^3
same,"Alanine transaminase, ALT",ICR (CD-1) mice; [1],41.22±15.75
same,"Alkaline phosphatase, ALP",ICR (CD-1) mice; [1],127.75±6.07
same,"Aspartate aminotransferase, AST",ICR (CD-1) mice; [1],141.2±23.08
same,Creatinine,ICR (CD-1) mice; [1],37.66±1.26
same,Total bilirubin,ICR (CD-1) mice; [1],2.01±0.27
same,Urea,ICR (CD-1) mice; [1],9.6±1.02
same,"Alanine transaminase, ALT","ICR (CD-1) mice; IP, RN7-IN10, RN7-IN8 20 mg/kg",51.54±5.83
same,"Aspartate aminotransferase, AST","ICR (CD-1) mice; IP, RN7-IN10, RN7-IN8 20 mg/kg",172.33±26.35
same,Creatinine,"ICR (CD-1) mice; IP, RN7-IN10, RN7-IN8 20 mg/kg",37.3±3.51
same,Total bilirubin,"ICR (CD-1) mice; IP, RN7-IN10, RN7-IN8 20 mg/kg",1.9±0.02
same,Urea,"ICR (CD-1) mice; IP, RN7-IN10, RN7-IN8 20 mg/kg",10.56±5.2
same,"Alanine transaminase, ALT",ICR (CD-1) mice; [2],43.17±13.81
same,"Alkaline phosphatase, ALP",ICR (CD-1) mice; [2],131.25±19.7
same,"Aspartate aminotransferase, AST",ICR (CD-1) mice; [2],188.33±11.22
same,Creatinine,ICR (CD-1) mice; [2],35±1.27
same,Total bilirubin,ICR (CD-1) mice; [2],2.2±0.13
same,Urea,ICR (CD-1) mice; [2],8.84±1.04
same,ATP released from pneumococcal cells after 3 h,S. pneumoniae,22.9 ± 3.22 pM
